Experimental data taken from patent US20080220446A1, “Method for Detecting and/or Removing Protein and/or Peptide Comprising a Cross-Beta Structure From an Aqueous Solution Comprising a Protein” (priority 2005, published 2008).
“And” between values parts separate entries of the source, which are not always exact repeats. Equal values may be shown once.

What was measured:
Fn F4-5 = molecular target: T1, Fn F4-5 (Homo sapiens, UniProt P02751); experiment: Biacore surface plasmon resonance, binding to immobilized Fn F4-5
T1 construct: amino-acids NH2—I182-V276-COOH of Fn F4-5; made in house; host or cells: Saccharomyces cerevisiae
Description: Binding of cross-β structure containing peptides/proteins was studied using surface plasmon resonance technology with a Biacore 2000 apparatus (Biacore AB, Uppsala, Sweden). A standardized amine coupling procedure was used to couple proteins with F domains to a CM5 chip (Biacore AB, Uppsala, Sweden). First, the dextran surface of the chips was activated by a 35 μl injection with a 1:1 mixture of 0.1 M N-hydroxysuccinimide (NHS) and 0.4 M N-ethyl-N′-(dimethylaminopropyl)carbodiimide (EDC) at a flow rate of 5 μl min.^−1. Then, the proteins were covalently coupled to the activated dextran surface. Remaining activated groups in each of the four flow channels were blocked by injection of 35 μl of 1 M ethanolamine hydrochloride pH 8.5. EDC, NHS and ethanolamine hydrochloride were obtained from Biacore. On one chip, on channels 1 to 4, buffer (reference channel), the soluble extracellular part of receptor for advanced glycation endproducts (sRAGE), tPA and K2P-tPA were immobilized. […] Binding of albumin-AGE was determined with a solution of 3.9 μg ml^−1 albumin-AGE in running buffer. albumin-AGE was filtered on a Millex-GV 0.22 μm filter unit (Millipore). […] Binding of Hb-AGE was also tested after centrifugation for 10 min. at 16,000*g alternative to filtration. tPA activation before and after filtration was assessed with a Plg-activation assay. […]

tPA [1] = molecular target: T2, tPA (Homo sapiens, UniProt P00750); experiment: Plasminogen-activation assay (tPA activation, S-2251); format: biochemical; settings: 100 μg ml^−1
Description: (§1) Plasmin (Pls) activity was assayed as described^16. Peptides and proteins that were tested for their stimulatory ability were regularly used at 100 μg ml^−1. […] Chromogenic substrate S-2251 (Chromogenix, Instrumentation Laboratory SpA, Milano, Italy) was used to measure Pls activity. Conversion of zymogen factor XII (#233490, Calbiochem, EMD Biosciences, Inc., San Diego, Calif.) to proteolytically active factor XII (factor XIIa) was assayed by measurement of the conversion of chromogenic substrate Chromozym-PK (Roche Diagnostics, Almere, The Netherlands) by kallikrein. Chromozym-PK was used at a concentration of 0.3 mM. Factor XII, human plasma prekallikrein (#529583, Calbiochem) and human plasma cofactor high-molecular weight kininogen (#422686, Calbiochem) were used at concentrations of 1 μg ml^−1. […] Assays were performed using microtiter plates (Costar, Cambridge, Mass., USA). Peptides and proteins were tested for their ability to activate factor XII. 150 μg ml^−1 kaolin, an established activator of factor XII was used as positive control and solvent (H2O) as negative control. The conversion of Chromozym-PK was recorded kinetically at 37° C. for at least 60 minutes. Assays were done in duplicate.
(§2) Formulated protein therapeutics were obtained from the local hospital pharmacy and were used as supplied by the manufacturers. […] Lyophilized therapeutics were dissolved according to the manufacturers recommendations. GH, zinc-insulin, Cealb and gelatin were stored at −20, 4, room temperature, 37 and 65° C. Other protein therapeutics were only kept at 4° C., and assayed for the presence of cross-β structure at shown time points. Enhancement in fluorescence of ThT and Congo red was measured with all formulated protein therapeutics. For this purpose, proteins were diluted to the indicated concentrations. […] Zinc-insulin was diluted tenfold in the activation assay, GH was diluted to a final concentration of 500 μg ml^−1. Activation of factor XII and prekallikrein by the therapeutics was tested in the chromogenic factor XII assay (see above). […] After coating, plates were blocked with Blocking Reagent (Roche Diagnostics, Almere, The Netherlands).
To prepare structurally altered ovalbumin (OVA) with amyloid cross-β structures, purified OVA (Sigma, A-7641, lot 071k7094) was heated to 85° C. One mg ml^−1 OVA in 67 mM NaPi buffer pH 7.0, 100 mM NaCl, was heated for two cycles in PCR cups in a PTC-200 thermal cycler (MJ Research, Inc., Waltham, Mass., USA). In each cycle, OVA was heated from 30 to 85° C. at a rate of 5° C./min. Native OVA (nOVA) and heat-denatured OVA (dOVA) were tested in the ThT fluorescence assay and in the Plg-activation assay. In the fluorescence assay and in the Plg-activation assay, 25 and 100 μg ml^−1 nOVA and dOVA were tested, respectively. TEM images of nOVA and dOVA were taken to check for the presence of large aggregates.
MSA (#126674, Calbiochem) was dissolved in 8 M urea, 100 mM Tris-HCl pH 8.2, at 10 mg ml^−1 final concentration. Dithiothreitol (DTT) was added to a final concentration of 10 mM. Air was replaced by N2 and the solution was incubated for 2 h at room temperature. Then, the solution was transferred to ice and iodoacetamide was added from a 1 M stock to a final concentration of 20 mM. […] Alkyl-MSA was dialyzed against H2O before use. […] In the ThT-fluorescence assay 25 μg ml^−1 nMSA and alkyl-MSA were tested, and in the Plg-activation assay 100 μg ml^−1 was tested. The presence of aggregates or fibrils was analyzed using TEM.
Lyophilized sterile glucagon was dissolved at 1 mg ml^−1 in H2O with 10 mM HCl. The solution was subsequently kept at 37° C. for 24 h, at 4° C. for 14 days and again at 37° C. for 9 days. […] TEM analysis was performed to assess the presence of large multimeric structures.

platelets = experiment: Aggregometric assay with washed platelets; format: cell-based, human
Description: The presence of protein(s) and/or peptide(s) with amyloid-like misfolded protein conformation on activated blood platelets was tested with washed platelets in an aggregometric assay. Freshly drawn human aspirin free blood was mixed gently with citrate buffer to avoid coagulation. Blood was spinned for 15 minutes at 150*g at 20° C. and supernatant was collected; platelet rich plasma (PRP). […] After spinning down the platelets upon centrifugation for 15 minutes at 330*g at 20° C., the pellet was resuspended in HEPES-Tyrode buffer pH 6.5. Prostacyclin was added to a final concentration of 10 ng/ml, and the solution was centrifuged for 15 minutes at 330*g at 20° C., with a soft brake. The pellet was resuspended in HEPES-Tyrode buffer pH 7.2 in a way that the final platelet number was adjusted to 200,000/μl. Platelets were kept at 37° C. for at least 30 minutes, before use in the assays, to ensure that they were in the resting state.
For the aggregometric assays, 400 μl platelet solution was added to a glass tube with 100 μl containing the agonist of interest, fibrinogen and CaCl2. Final concentrations of fibrinogen and CaCl2 were 0.5 mg/ml and 3 mM, respectively. A stirring magnet was added and the apparatus (Whole-blood aggregometer, Chrono-log, Havertown, Pa., USA) was blanked. Aggregation was followed in time by measuring the absorbance of the solution, that will decrease in time upon platelet aggregation. As a positive control, 0.5 U/ml thrombin was used, or TRAP. Aggregation was followed for 10 minutes. Influence of 200 μM Thioflavin T, 200 μM Congo red or 1 μM tPA on platelet aggregation was analyzed.

[2] = molecular target: T3, LRP cl-IV binding to BSA-AGE (Bos taurus, UniProt P02769); experiment: ELISA, interference with LRP cl-IV binding to BSA-AGE; set-up: species or system human; settings: concentration series, 50 times diluted LRP cl-IV medium
T3 construct: made in house; host or cells: HEK293E/S (LRP cl-IV, culture supernatant)
Description: To test whether amyloid-like crossbeta structure binding compounds tPA, Congo red, Thioflavin T and Thioflavin S interfere with LRP cl-IV binding to BSA-AGE, concentration series of the potential inhibitory amyloid binding moieties were tested in the presence of 50 times diluted medium containing LRP cl-IV. The following inhibitors were used: tPA, Congo red, Thioflavin T (ThT) and Thioflavin S (ThS). As a control to tPA, K2P tPA, which lacks the amyloid-like misfolded protein binding finger domain, was included in the analyses. The influence of tPA and K2P tPA was tested in the presence of 10 mM ε-amino caproic acid to avoid binding of the kringle2 domain of tPA and K2P tPA to lysine- and arginine residues. Binding buffer and K2P tPA serve as negative controls in these inhibition studies. The concentration series was measured in triplicate, the values averaged and standard deviations calculated. Background signals obtained with buffer-coated wells were subtracted. Signals obtained with binding of LRP cluster IV to BSA-AGE was set arbitrarily to a reference binding of 100% and signals obtained with the concentration series of misfolded protein binding moieties and K2P tPA were calculated based on this set reference.

[3] = test system: tPA binding to amyloid-like aggregates; settings: ELISAs; patent application P57716EP00 and unpublished data; cited from earlier work
[4] = Congo red fluorescence of protein solutions; format: physicochemical
Description: Background signals from buffer, buffer with Congo red and protein/peptide solution without Congo red were subtracted from corresponding measurements with protein solution incubated with Congo red. Fluorescence was measured in triplicate on a Hitachi F-4500 fluorescence spectrophotometer (Ltd., Tokyo, Japan).
as §2

factor XII = molecular target: T4, factor XII (Homo sapiens, UniProt P00748); experiment: Factor XII / prekallikrein activation assay (Chromozym-PK); format: biochemical
T4 construct: purified human factor XII from plasma (Calbiochem); purchased Calbiochem; host or cells: human plasma
T4 sequence (P00748 20-615): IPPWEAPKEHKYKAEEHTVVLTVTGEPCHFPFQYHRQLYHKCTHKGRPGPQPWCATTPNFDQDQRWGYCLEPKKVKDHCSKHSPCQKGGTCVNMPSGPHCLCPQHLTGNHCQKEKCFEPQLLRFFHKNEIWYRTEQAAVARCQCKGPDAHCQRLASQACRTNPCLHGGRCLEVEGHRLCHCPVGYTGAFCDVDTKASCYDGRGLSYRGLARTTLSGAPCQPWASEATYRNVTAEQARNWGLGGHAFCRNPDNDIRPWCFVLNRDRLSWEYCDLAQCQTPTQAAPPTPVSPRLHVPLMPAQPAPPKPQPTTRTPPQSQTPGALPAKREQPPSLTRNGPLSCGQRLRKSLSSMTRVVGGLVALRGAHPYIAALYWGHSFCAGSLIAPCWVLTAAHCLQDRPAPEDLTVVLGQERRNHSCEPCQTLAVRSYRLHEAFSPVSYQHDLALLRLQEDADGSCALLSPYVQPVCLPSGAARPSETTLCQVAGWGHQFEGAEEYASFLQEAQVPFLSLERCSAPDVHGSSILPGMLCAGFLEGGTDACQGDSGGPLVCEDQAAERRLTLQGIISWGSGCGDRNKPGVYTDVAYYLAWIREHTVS
Description: as §1, with “150 μg ml^−1 kaolin, an established activator of factor XII was used as positive control and solvent (H2O) as negative control.” left out, “Assays were done in duplicate.” left out
Formulated protein therapeutics were obtained from the local hospital pharmacy and were used as supplied by the manufacturers. […] Enhancement in fluorescence of ThT and Congo red was measured with all formulated protein therapeutics. […]

tPA [5] = molecular target: T2, tPA; experiment: tPA ELISA with coated protein therapeutics; format: binding; settings: ELISA, stored at the recommended temperature of 4° C.
Description: as §2

T1 sequence (P02751 182-276): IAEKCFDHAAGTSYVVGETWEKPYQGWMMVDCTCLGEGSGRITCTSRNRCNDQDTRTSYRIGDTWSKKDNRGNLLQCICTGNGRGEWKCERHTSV
T2 sequence (P00750 36-562): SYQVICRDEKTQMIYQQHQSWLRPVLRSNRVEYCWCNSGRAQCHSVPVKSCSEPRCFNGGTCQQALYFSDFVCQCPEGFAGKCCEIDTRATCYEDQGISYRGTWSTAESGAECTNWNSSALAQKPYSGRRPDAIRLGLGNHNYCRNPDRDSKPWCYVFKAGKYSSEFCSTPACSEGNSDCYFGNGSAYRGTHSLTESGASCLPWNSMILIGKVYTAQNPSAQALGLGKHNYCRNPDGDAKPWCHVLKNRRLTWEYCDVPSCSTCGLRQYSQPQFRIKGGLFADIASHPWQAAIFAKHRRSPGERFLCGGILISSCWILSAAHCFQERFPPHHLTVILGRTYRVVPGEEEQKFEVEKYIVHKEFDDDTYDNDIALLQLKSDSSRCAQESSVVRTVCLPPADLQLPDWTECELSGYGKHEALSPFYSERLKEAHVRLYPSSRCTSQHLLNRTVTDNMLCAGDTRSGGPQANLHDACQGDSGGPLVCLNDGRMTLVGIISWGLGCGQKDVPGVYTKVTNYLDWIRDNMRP
T3 sequence (P02769 25-607): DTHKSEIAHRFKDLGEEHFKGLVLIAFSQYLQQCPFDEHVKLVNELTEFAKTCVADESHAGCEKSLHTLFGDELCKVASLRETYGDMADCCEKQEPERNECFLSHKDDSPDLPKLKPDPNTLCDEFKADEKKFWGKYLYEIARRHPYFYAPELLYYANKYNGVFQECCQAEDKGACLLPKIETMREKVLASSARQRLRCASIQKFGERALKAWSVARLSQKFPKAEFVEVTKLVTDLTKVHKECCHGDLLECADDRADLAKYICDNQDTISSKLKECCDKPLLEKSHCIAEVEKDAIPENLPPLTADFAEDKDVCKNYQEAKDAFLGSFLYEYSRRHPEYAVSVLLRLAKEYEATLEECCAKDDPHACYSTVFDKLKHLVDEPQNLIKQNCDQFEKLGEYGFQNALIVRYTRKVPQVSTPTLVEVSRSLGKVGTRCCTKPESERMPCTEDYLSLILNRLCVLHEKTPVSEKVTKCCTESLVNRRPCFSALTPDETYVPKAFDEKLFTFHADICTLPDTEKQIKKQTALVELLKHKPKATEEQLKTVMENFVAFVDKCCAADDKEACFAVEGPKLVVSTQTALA

endostatin
binding to the Fn F4-5 doublet (Fn F4-5; Biacore, native Hb at 25 nM): bound | Kd (Fn F4-5; immobilized Fn F4-5, Biacore CM5 chip, read-out: concentration of ligand that results in half maximum binding to Fn F4-5): ≤ 800 nM and 800 nM | tPA activating properties (tPA [1]): absence of tPA activating properties

tPA: tissue-type plasminogen activator
inhibition of thrombin-induced aggregation (platelets; 1 μM): 55%

Nc1c(/N=N/c2ccc(-c3ccc(/N=N/c4cc(S(=O)(=O)O)c5ccccc5c4N)cc3)cc2)cc(S(=O)(=O)O)c2ccccc12 [Congo red]
influence on binding of LRP cl-IV to BSA-AGE [2]: inhibit binding of LRP cl-IV to BSA-AGE to a large extent | inhibition at 200 µM (platelets; Homo sapiens, Platelet, 200 μM, read-out: inhibition of platelet aggregation): ≤ 30% | competition for tPA binding to amyloid-like aggregates [3]: can efficiently compete for tPA binding

Gelatin
enhancement of Congo red fluorescence ([4]; stored at 4° C. and 37° C.): enhanced Congo red fluorescence in a storage temperature dependent manner | enhancement of Congo red fluorescence ([4]; stored at the recommended storage temperature of 4° C.): enhanced the fluorescence of Congo red | activation of factor XII (factor XII; kept at 37° C.): activated factor XII | activation of the factor XII/prekallikrein contact system (factor XII; stored at 4° C.): not | binding of tPA (tPA [5]): binding of tPA was established
